Measurements: ChEMBL document CHEMBL1155042, “Carbamates with differential mechanism of inhibition toward acetylcholinesterase and butyrylcholinesterase” (J Med Chem, 2008)
Calls of active or inactive are those of the source. The calls are words filed in the database; no cut-off is given here.

Tests used:
[1] = target: T1, Cholinesterase (Homo sapiens, UniProt P06276); test: Inhibition of human serum BchE by Ellman's assay
[2] = target: Acetylcholinesterase (Homo sapiens) (UniProt P22303)
Description: Inhibition of human recombinant AchE by Ellman's assay

[3] = target: T1, Cholinesterase; test: Inhibition of human serum BchE at 73.3 uM by Ellman's assay
[4] = target: T1, Cholinesterase; test: Inhibition of human serum BchE at 23.6 uM by Ellman's assay
[5] = target: T1, Cholinesterase; test: Deactivation of human wild type recombinant BchE assessed as residual enzyme activity at 2.1 uM after 5 mins
[6] = target: T1, Cholinesterase; test: Deactivation of human wild type recombinant BchE assessed as residual enzyme activity at 2.1 uM after 10 mins
[7] = target: T1, Cholinesterase; test: Deactivation of human wild type recombinant BchE assessed as residual enzyme activity at 2.1 uM after 15 mins
[8] = target: T1, Cholinesterase; test: Deactivation of human BchE D70G mutant assessed as residual enzyme activity at 2.1 uM after 5 mins
[9] = target: T1, Cholinesterase; test: Deactivation of human BchE D70G mutant assessed as residual enzyme activity at 2.1 uM after 10 mins
[10] = target: T1, Cholinesterase; test: Deactivation of human BchE D70G mutant assessed as residual enzyme activity at 2.1 uM after 15 mins
[11] = target: T1, Cholinesterase; test: Deactivation of human BchE A539T mutant assessed as residual enzyme activity at 2.1 uM after 5 mins
[12] = target: T1, Cholinesterase; test: Deactivation of human BchE A539T mutant assessed as residual enzyme activity at 2.1 uM after 10 mins
[13] = target: T1, Cholinesterase; test: Deactivation of human BchE A539T mutant assessed as residual enzyme activity at 2.1 uM after 15 mins
[14] = target: T1, Cholinesterase; test: Deactivation of human BchE Y332A mutant assessed as residual enzyme activity at 2.1 uM after 5 mins
[15] = target: T1, Cholinesterase; test: Deactivation of human BchE Y332A mutant assessed as residual enzyme activity at 2.1 uM after 10 mins
[16] = target: T1, Cholinesterase; test: Deactivation of human BchE Y332A mutant assessed as residual enzyme activity at 2.1 uM after 15 mins
[17] = target: T1, Cholinesterase; test: Deactivation of human BchE A328Y mutant assessed as residual enzyme activity at 2.1 uM after 5 mins
[18] = target: T1, Cholinesterase; test: Deactivation of human BchE A328Y mutant assessed as residual enzyme activity at 2.1 uM after 10 mins
[19] = target: T1, Cholinesterase; test: Deactivation of human BchE A328Y mutant assessed as residual enzyme activity at 2.1 uM after 15 mins
[20] = target: T1, Cholinesterase; test: Deactivation of human BchE A328F mutant assessed as residual enzyme activity at 2.1 uM after 5 mins
[21] = target: T1, Cholinesterase; test: Deactivation of human BchE A328F mutant assessed as residual enzyme activity at 2.1 uM after 10 mins
[22] = target: T1, Cholinesterase; test: Deactivation of human BchE A328F mutant assessed as residual enzyme activity at 2.1 uM after 15 mins
[23] = target: T1, Cholinesterase; test: Deactivation of human BchE A328W mutant assessed as residual enzyme activity at 2.1 uM after 5 mins
[24] = target: T1, Cholinesterase; test: Deactivation of human BchE A328W mutant assessed as residual enzyme activity at 2.1 uM after 10 mins
[25] = target: T1, Cholinesterase; test: Deactivation of human BchE A328W mutant assessed as residual enzyme activity at 2.1 uM after 15 mins
[26] = target: T1, Cholinesterase; test: Deactivation of human BchE F329S mutant assessed as residual enzyme activity at 2.1 uM after 5 mins
[27] = target: T1, Cholinesterase; test: Deactivation of human BchE F329S mutant assessed as residual enzyme activity at 2.1 uM after 10 mins
[28] = target: T1, Cholinesterase; test: Deactivation of human BchE F329S mutant assessed as residual enzyme activity at 2.1 uM after 15 mins
[29] = target: T1, Cholinesterase; test: Deactivation of human BchE F329A mutant assessed as residual enzyme activity at 2.1 uM after 5 mins
[30] = target: T1, Cholinesterase; test: Deactivation of human BchE F329A mutant assessed as residual enzyme activity at 2.1 uM after 10 mins
[31] = target: T1, Cholinesterase; test: Deactivation of human BchE F329A mutant assessed as residual enzyme activity at 2.1 uM after 15 mins

T1 sequence (P06276 whole entry): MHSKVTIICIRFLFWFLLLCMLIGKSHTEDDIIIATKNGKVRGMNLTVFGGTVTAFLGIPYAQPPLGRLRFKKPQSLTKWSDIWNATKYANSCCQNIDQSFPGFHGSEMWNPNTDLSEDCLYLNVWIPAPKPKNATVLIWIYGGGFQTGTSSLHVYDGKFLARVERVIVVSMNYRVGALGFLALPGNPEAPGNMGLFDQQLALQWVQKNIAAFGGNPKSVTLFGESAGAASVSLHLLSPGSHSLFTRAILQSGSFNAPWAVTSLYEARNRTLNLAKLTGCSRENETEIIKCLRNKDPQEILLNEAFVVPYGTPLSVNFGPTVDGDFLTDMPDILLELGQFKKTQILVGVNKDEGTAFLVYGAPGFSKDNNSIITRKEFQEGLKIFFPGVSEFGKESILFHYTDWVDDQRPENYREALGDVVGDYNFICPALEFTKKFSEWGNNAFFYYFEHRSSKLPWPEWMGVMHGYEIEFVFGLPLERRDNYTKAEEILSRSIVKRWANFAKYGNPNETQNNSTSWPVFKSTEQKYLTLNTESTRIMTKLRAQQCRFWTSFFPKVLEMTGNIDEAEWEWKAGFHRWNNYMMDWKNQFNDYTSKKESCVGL
Sequence of Acetylcholinesterase (Homo sapiens) (P22303 whole entry): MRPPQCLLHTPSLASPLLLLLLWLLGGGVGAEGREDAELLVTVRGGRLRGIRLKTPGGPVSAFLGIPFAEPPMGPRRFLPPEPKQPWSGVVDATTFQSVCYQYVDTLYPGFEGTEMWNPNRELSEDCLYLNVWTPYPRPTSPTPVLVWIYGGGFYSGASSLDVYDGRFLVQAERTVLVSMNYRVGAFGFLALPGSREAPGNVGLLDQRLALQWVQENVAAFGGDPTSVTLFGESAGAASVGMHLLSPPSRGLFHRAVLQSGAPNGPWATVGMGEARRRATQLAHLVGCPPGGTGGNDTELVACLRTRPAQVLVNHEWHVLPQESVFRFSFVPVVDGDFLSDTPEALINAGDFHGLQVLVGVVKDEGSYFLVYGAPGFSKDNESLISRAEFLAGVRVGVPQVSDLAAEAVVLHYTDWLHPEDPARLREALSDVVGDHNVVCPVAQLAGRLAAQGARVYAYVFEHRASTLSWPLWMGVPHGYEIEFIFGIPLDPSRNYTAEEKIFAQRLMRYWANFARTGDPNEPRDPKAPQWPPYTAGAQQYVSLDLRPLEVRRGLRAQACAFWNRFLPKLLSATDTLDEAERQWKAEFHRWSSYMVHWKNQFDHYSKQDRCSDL

Structure (SMILES): CCN(CC)CCOC(=O)N1c2ccccc2Sc2ccccc21
- Ki [1]: 610 nM
- Ka [2]: 0.24 ×10³ /M/min

Structure (SMILES): O=C(OCCN1CCOCC1)N1c2ccccc2Sc2ccccc21
- Ki [1]: 2400 nM
- Ka [2]: 0.12 ×10³ /M/min

Structure (SMILES): O=C(OCCN1CCCCC1)N1c2ccccc2Sc2ccccc21
- Ki [1]: 3200 nM
- Ka [2]: 3 ×10³ /M/min

Structure (SMILES): CC(C)OC(=O)N1c2ccccc2Sc2ccccc21
- Ki [1]: 18100 nM
- Ka [2]: 1.8 ×10³ /M/min

Structure (SMILES): O=C(Oc1ccccc1Cl)N1c2ccccc2Sc2ccccc21
- Ki [1]: 45400 nM
- Ka [2]: 18.7 ×10³ /M/min

Structure (SMILES): COc1cccc(OC(=O)N2c3ccccc3Sc3ccccc32)c1
- Ki [1]: 710 nM
- Ka [2]: 89.4 ×10³ /M/min

Structure (SMILES): O=C(Oc1cccc(Cl)c1)N1c2ccccc2Sc2ccccc21
- Ki [1]: 570 nM
- Ka [2]: 3.21 ×10³ /M/min

Structure (SMILES): CCCCOC(=O)N1c2ccccc2Sc2ccccc21
- Ki [1]: 13400 nM
- Ka [2]: 0.135 ×10³ /M/min

Structure (SMILES): COc1ccccc1OC(=O)N1c2ccccc2Sc2ccccc21
- Ki [1]: 340 nM
- Ka [2]: 5.99 ×10³ /M/min

Structure (SMILES): Cc1ccc(OC(=O)N2c3ccccc3Sc3ccccc32)cc1
- Ki [1]: 2850 nM
- Ka [2]: 92.6 ×10³ /M/min

Structure (SMILES): Cc1ccccc1OC(=O)N1c2ccccc2Sc2ccccc21
- Ki [1]: 390 nM
- Ka [2]: 547 ×10³ /M/min

Structure (SMILES): CN(C)CCOC(=O)N1c2ccccc2Sc2ccccc21
- Ki [1]: 2450 nM
- Ka [2]: 0.546 ×10³ /M/min

Structure (SMILES): CC(C)(C)OC(=O)N1c2ccccc2Sc2ccccc21
- Ki [1]: 4300 nM
- Ka [2]: 0.219 ×10³ /M/min

Structure (SMILES): O=C(Oc1cccc2ccccc12)N1c2ccccc2Sc2ccccc21
- Ki [1]: 36 nM
- Ka [2]: 1650 ×10³ /M/min

Structure (SMILES): O=C(Oc1ccc(Cl)cc1)N1c2ccccc2Sc2ccccc21
- Ki [1]: 10500 nM
- Ka [2]: 7.25 ×10³ /M/min

Structure (SMILES): CCOC(=O)N1c2ccccc2Sc2ccccc21
- Ki [1]: 23400 nM
- Ka [2]: 0.193 ×10³ /M/min

Structure (SMILES): O=C(Oc1ccc2ccccc2c1)N1c2ccccc2Sc2ccccc21
- Ki [1]: 120 nM
- Ka [2]: 11.2 ×10³ /M/min

Structure (SMILES): CC(C)(C)c1ccc(OC(=O)N2c3ccccc3Sc3ccccc32)cc1
- Activity [3]: inactive
- Ka [2]: 0.63 ×10³ /M/min

Structure (SMILES): COC(=O)N1c2ccccc2Sc2ccccc21
- Ki [1]: 10200 nM
- Ka [2]: 0.426 ×10³ /M/min

Structure (SMILES): CCN(CC)CCCOC(=O)N1c2ccccc2Sc2ccccc21
- Ki [1]: 740 nM
- Ka [2]: 0.21 ×10³ /M/min

Structure (SMILES): CN(C)c1cccc(OC(=O)N2c3ccccc3Sc3ccccc32)c1
- Ki [1]: 1910 nM
- Ka [2]: 19200 ×10³ /M/min

Structure (SMILES): O=C(Oc1ccc(-c2ccccc2)cc1)N1c2ccccc2Sc2ccccc21
- Activity [4]: inactive
- Activity [5]: 100%
- Activity [6]: 100%
- Activity [7]: 100%
- Activity [8]: 99.5%
- Activity [9]: 90%
- Activity [10]: 76%
- Activity [11]: 99%
- Activity [12]: 94%
- Activity [13]: 93%
- Activity [14]: 58%
- Activity [15]: 87%
- Activity [16]: 85%
- Activity [17]: 85%
- Activity [18]: 67%
- Activity [19]: 63%
- Activity [20]: 88%
- Activity [21]: 75%
- Activity [22]: 59%
- Activity [23]: 74%
- Activity [24]: 57%
- Activity [25]: 35%
- Activity [26]: 51%
- Activity [27]: 15%
- Activity [28]: 11%
- Activity [29]: 46%
- Activity [30]: 26%
- Activity [31]: 12%
- Ka [2]: 910 ×10³ /M/min

Structure (SMILES): O=C(OC1CCCC1)N1c2ccccc2Sc2ccccc21
- Ki [1]: 3190 nM
- Ka [2]: 0.492 ×10³ /M/min

Structure (SMILES): COc1ccc(OC(=O)N2c3ccccc3Sc3ccccc32)cc1
- Ki [1]: 2260 nM
- Ka [2]: 1.42 ×10³ /M/min

Structure (SMILES): Cc1cccc(OC(=O)N2c3ccccc3Sc3ccccc32)c1
- Ki [1]: 1690 nM
- Ka [2]: 7.49 ×10³ /M/min

Structure (SMILES): CC(C)(C)c1ccccc1OC(=O)N1c2ccccc2Sc2ccccc21
- Ki [1]: 120 nM
- Ka [2]: 0.011 ×10³ /M/min

Structure (SMILES): O=C(OCCN1CCCC1)N1c2ccccc2Sc2ccccc21
- Ki [1]: 650 nM
- Ka [2]: 46 ×10³ /M/min

Structure (SMILES): CCCOC(=O)N1c2ccccc2Sc2ccccc21
- Ki [1]: 260000 nM
- Ka [2]: 0.219 ×10³ /M/min

Structure (SMILES): O=C(Oc1ccccc1)N1c2ccccc2Sc2ccccc21
- Ki [1]: 570 nM
- Ka [2]: 46 ×10³ /M/min
